Entries after “also recorded” stand apart in the source; their conditions may differ.
Columns and labels:
Format in all cases: in vivo, human
[1] = test system: subjects with ocular surface disease associated with Primary Sjögren's Syndrome; test: Burning/Stinging individual symptom assessment (VAS) in Lacripep clinical study
Experimental: (§1) The primary objective of this study was to evaluate the safety and tolerability of 22 and 44 μM Lacripep™ ophthalmic solution versus placebo (vehicle) administered three times daily for 28 days in subjects with a history of ocular surface disease associated with Primary Sjögren's Syndrome, including subjects with mild dry eye symptoms. Additionally, many dry eye signs and symptoms were assessed.
(§2) This was a multi-center, randomized, placebo-controlled, double-masked, parallel-group study conducted at 35 sites in the United States, and approved by local institutional review boards. Written informed consent was obtained from all subjects after review of risks and benefits of participation. The study was conducted in accordance with the Health Insurance Portability and Accountability Act of 1996 and Declaration of Helsinki of 1996 and registered at ClinicalTrials.gov: NCT 03226444.
(§3) The study duration was 56 days, including a 14-day run-in period, a 28-day active treatment period, and 14-day follow-up period (wash-out) (see FIG. 2). Measurements were collected at five scheduled visits.
(§4) Randomization and Treatment: At Visit 2 (Baseline/Randomization) eligibility was confirmed. All criteria were met in the same study eye. […] Eligible subjects were randomly assigned to one of the three treatment groups: one of two Lacripep™ ophthalmic solution strengths (22 μM or 44 μM) or placebo (vehicle).
One drop of investigational product was administered three times a day (TID) to both eyes for 28 days. […]
Tear film break-up time (TBUT) was measured in seconds. The Symptom Assessment in Dry Eye (SANDE) inventory version 1 and version 2 measured patient-rated symptom severity and frequency using a visual-analogue scale. The Individual Symptom Assessments (instantaneous and Reflective) measured patient-reported symptoms on a visual-analogue scale (VAS). […]
(§5) Post-Hoc Efficacy Analysis: Post-hoc, all primary and secondary endpoints were assessed for treatment effect controlling for baseline Eye Dryness Score (EDS) using analysis of covariance (ANCOVA). […] Subgroups were then evaluated according to baseline EDS.

[2] = test system: subjects with ocular surface disease associated with Primary Sjögren's Syndrome; test: Corneal fluorescein staining (CFS, NEI scale) in Lacripep clinical study NCT 03226444
Experimental: as §1, §2, §3
Screening and Eligibility: At Visit 1 (Screening) informed consent was obtained from subjects and eligibility was determined requiring documentation of Primary Sjögren's Syndrome per the American-European Consensus Group Sjögren's Syndrome Criteria. Subjects were at least 18 years of age with a history of dry eye-related symptoms and use of eye-wetting agents within the past 120 days. Major inclusion criteria at the screening and subsequent baseline visits included: • 1. CFS total score >4 and <15 in the National Eye Institute Industry Workshop (NEI) scale (Protocol Appendix 6) • 2. Symptom Severity score of ≥40 using the Symptom Assessment in Dry Eye (SANDE) questionnaire • 3. Anesthetized Schirmer test score […] • 4. LGCS total score ≥5 using the NEI scale
as §4
(§6) One drop of investigational product was administered three times a day (TID) to both eyes for 28 days. At Visit 3 (Week 2) and Visit 4 (Week 4) efficacy and safety evaluations were performed. Subjects who discontinued before Visit 4 underwent Visit 4 evaluations (Early Termination).
(§7) Efficacy: All efficacy assessments were performed in both eyes, and by the same person if possible. […] Lissamine green conjunctival staining (LGCS) was assessed in 6 regions on a 0 to 3 scale (total 0 to 18). All sites were trained and tested on NEI scoring methodology.
The primary efficacy measurement was mean change from Baseline to Day 28 in CFS total score (NEI/Industry Workshop 0-15 scale, 0-3 scale in each of 5 regions) in the study eye. The key secondary efficacy measurement was mean change from Baseline to Day 28 in Eye Dryness Score (VAS from 0 to 100 mm) from Individual Symptom Assessments.
The change from Baseline in CFS to Day 14 and to post treatment follow-up (Day 42) were additional secondary measurements. Other secondary measurements included changes from baseline to Day 14 and Day 28 in the LGCS scores, TFBUT, and Schirmer tests. Secondary symptom measurements included changes from baseline to Day 14 and Day 28 in the SANDE and each of the Individual Symptom Assessments. […]

[3] = test system: subjects with ocular surface disease associated with Primary Sjögren's Syndrome; test: Lissamine green conjunctival staining (LGCS, NEI scale) in Lacripep clinical study
Experimental: as §1, §2, §3, §4, §6, §7
The change from Baseline in CFS to Day 14 and to post treatment follow-up (Day 42) were additional secondary measurements. Other secondary measurements included changes from baseline to Day 14 and Day 28 in the LGCS scores, TFBUT, and Schirmer tests. Secondary symptom measurements included changes from baseline to Day 14 and Day 28 in the SANDE and each of the Individual Symptom Assessments.
as §5, with “(ANCOVA). All ANCOVA models were fit using the Proc Mixed procedure in SAS. Post-hoc analysis was also performed using all observed data in the ITT set, without imputation.” for “(ANCOVA).”

[4] = 22 μM TID, day 14, prespecified analysis

**Q.** Which results are given for “Ac-Lys-Gln-Phe-Ile-Glu-Asn-Gly-Ser-Glu-Phe-Ala-Gln-Lys-Leu-Leu-Lys-Lys-Phe-Ser-NH2 (Ac-KQFIENGSEFAQKLLKKFS-NH2) [Lacripep™, synthetic 19 amino acid peptide fragment of lacritin]”?
**A.** Improvement from baseline in Burning/Stinging symptom (reflective VAS rating) vs. placebo [1, 4]: statistically significant; Burning/Stinging symptom vs placebo at later time points ([1]; both dose groups (22 and 44 μM), day 28 and day 42, not statistically significant): trend better than the placebo group; Burning/Stinging symptom treatment effect ([1]; both dose groups, day 28, subset baseline EDS of ≥60): positive but not significant effect; Improvement in total CFS score vs placebo ([2]; 22 μM TID, day 14, baseline EDS set, p=0.03): 1.2; Improvement from baseline in inferior region CFS score vs. placebo [2, 4]: statistically significant; Treatment effect on inferior CFS after washout ([2]; 22 μM, day 42 post-treatment follow-up, subset baseline EDS): falling off after washout; Difference in inferior region CFS score vs. placebo ([2]; 44 μM TID (higher dose group), subset baseline EDS≥60): Positive (though not statistically significant) differences; also recorded: positive but not significant effect; Primary endpoint of CFS score at day 28 ([2]; day 28, change from baseline in CFS total score vs placebo): not met; Improvement in change from baseline LGCS total score vs. placebo ([3]; 22 μM TID, day 14, subset baseline EDS≥60, p=0.017): 1.5; Improvement in LGCS segment 5 vs. placebo ([3]; 22 μM TID, day 14, subset baseline EDS≥60, p=0.038): 0.4; Improvement in LGCS segment 1 vs. placebo ([3]; 22 μM TID, day 14, subset baseline EDS≥60, p=0.049): 0.4; Improvement in LGCS ([3]; prespecified secondary endpoint analysis): not statistically significant

Source: patent US20260021159A1, “STABLE PEPTIDE COMPOSITIONS AND METHODS OF USE THEREOF FOR TREATMENT OF MODERATE/SEVERE DRY EYE-RELATED OCULAR SYMPTOMS” (TearSolutions, Inc., priority 2022, published 2026)
